Publication PMC2248282 (Chemmedchem, 2007)
pIC50: −log10 of the molar value.

Experiments:
[1] = LC-MS stability in phosphate buffer saline at 37°C; assay type: physicochemical
T. b. brucei (Bs427) = experiment: In vitro trypanocidal assay; assay type: cell-based; settings: for activity against T. b. brucei (in words): in vitro; for pIC50: Trypanosoma brucei, read-out: IC50 Bs427
[2] = system: human embryonic kidney cells (HEK 293T); experiment: Cytotoxicity to mammalian cells; assay type: cell-based; settings: read-out: IC50 HEK 293T
[3] = phosphate buffered saline, pH 7.2

| half-life at 1 mg/mL [1, 3] [min] | Molecule | half-life ([1]; PBS (pH 7.2) at 37°C, LC-MS, disappearance of molecular ion) [min] | activity against T. b. brucei (in words) (T. b. brucei (Bs427)) | pIC50 (T. b. brucei (Bs427)) | pIC50 [2] | half-life [1, 3] [min] |
| --- | --- | --- | --- | --- | --- | --- |
|  | 2,2-Dimethyl-thiopropionic acid S-(2-{[5-(2,4-dimethoxy-benzyloxycarbamoyl)-2,2-dimethyl-[1,3]dioxolan-4-ylmethoxy]-phenoxy-phosphoryloxy}-ethyl) ester [Compound 3d] | 128 | highest activity |  |  |  |
|  | CC1(C)OC(COP(=O)(OCCSC(=O)C(C)(C)C)OCCSC(=O)C(C)(C)C)C(C(=O)NO)O1 (stereo not drawn) [Compound 3a, 2,2-Dimethyl-thiopropionic acid S-{2-[[2-(2,2-dimethyl-propionylsulfanyl)-ethoxy]-(5-hydroxycarbamoyl-2,2-dimethyl-[1,3]dioxolan-4-ylmethoxy)-phosphoryloxy]-ethyl} ester] |  | highest activity | 5.37 | < 3.70 |  |
|  | COC(=O)C(C)NP(=O)(OCC1OC(C)(C)OC1C(=O)NO)Oc1ccccc1 (stereo not drawn) [Compound 3b, 2-[(5-Hydroxycarbamoyl-2,2-dimethyl-[1,3]dioxolan-4-ylmethoxy)-phenoxy-phosphorylamino]-propionic acid methyl ester] |  | highest activity | 5.16 | < 3.70 | 300 |
| 51 | COC(=O)C(C)NP(=O)(OCC1OC(C)(C)OC1C(=O)NO)Oc1ccc([N+](=O)[O-])cc1 (stereo not drawn) [Compound 3c, 2-[(5-Hydroxycarbamoyl-2,2-dimethyl-[1,3]dioxolan-4-ylmethoxy)-(4-nitro-phenoxy)-phosphorylamino]-propionic acid methyl ester] |  | moderate activities | 4.36 | < 3.70 |  |
| 31.8 | CC1(C)OC(COP(=O)(OCOC(=O)C(C)(C)C)OCOC(=O)C(C)(C)C)C(C(=O)NO)O1 (stereo not drawn) [Compound 3e, (5-(hydroxycarbamoyl)-2,2-dimethyl-1,3-dioxolan-4-yl)methyl bis((pivaloyloxy)methyl) phosphate] |  | moderate activities | 4.69 | < 3.70 |  |
|  | COc1ccc(CONC(=O)C2OC(C)(C)OC2COP(=O)(OCCSC(=O)C(C)(C)C)OCCSC(=O)C(C)(C)C)c(OC)c1 (stereo not drawn) [Compound 24, 2,2-dimethyl-thiopropionic acid S-(2-{[5-(2,4-dimethoxy-benzyloxycarbamoyl)-2,2-dimethyl-[1,3]dioxolan-4-ylmethoxy]-[2-(2,2-dimethyl-propionylsulfanyl)-ethoxy]-phosphoryloxy}-ethyl) ester] |  | improved activity | 4.60 | < 3.70 |  |
|  | COc1ccc(CONC(=O)C2OC(C)(C)OC2COP(=O)(OCCSC(=O)C(C)(C)C)Oc2ccccc2)cc1 (stereo not drawn) [Compound 26a, 2,2-Dimethyl-thiopropionic acid S-(2-{[5-(4-methoxy-benzyloxycarbamoyl)-2,2-dimethyl-[1,3]dioxolan-4-ylmethoxy]-phenoxy-phosphoryloxy}-ethyl) ester] |  |  | < 4.00 | < 3.70 |  |
|  | COc1ccc(CONC(=O)C2OC(C)(C)OC2COP(=O)(OCCSC(=O)C(C)(C)C)Oc2ccccc2)c(OC)c1 (stereo not drawn) [Compound 26b, 2,2-Dimethyl-thiopropionic acid S-(2-{[5-(2,4-dimethoxy-benzyloxycarbamoyl)-2,2-dimethyl-[1,3]dioxolan-4-ylmethoxy]-phenoxy-phosphoryloxy}-ethyl) ester] |  |  | < 4.00 | < 3.70 |  |
